In patent publication US5733559A, “Controlled release inclusion system of glycolic acid in β-cyclo-dextrin and process for the above system preparation” (priority 1995, dated 1998):
Values joined by “and” are separate entries in the source; they are usually repeats but may differ in a detail not shown here. Identical values can stand only once.

Columns and labels:
[1] = system: cutaneous area (volar surfaces of the forearm); experiment: Patch test (epicutaneous test): cutaneous irritation by occlusive application, average index of cutaneous irritation (IIM)
Source text: The first series of tests consisted in the test of cutaneous irritation or epicutaneous test (Patch Test) by means of occlusive application.
(§1) Free glycolic acid 70% (AG)--Du Pont
Ten healthy subjects were selected, of both sex, with negative anamnesis for allergic dermatitis by contact (DAC) and without any other pathology in process during the execution of the Test.
The ready to use plasters for dermoreactions used for the Patch Test were made of white "non woven fabric" with a dermatophilic mass of acrylic adhesive, in the shape of 1 cm diameter disc, covered by small squares of polyethylene.
The test was performed as follows: after cleansing with 70% alcoholic solution (denatured ethyl alcohol the cutaneous area to be treated (volar surfaces of the forearm), occlusive applications of the substance under examination were carried out for one hour. After that period, the plasters were removed and 15 minutes later the cutaneous reaction was evaluated and classified on the basis of an arbitrary scale.
The cutaneous reactions considered were:
According to the arbitrary scale used for the classification of the cutaneous reactions, 0 corresponds to the absence of reaction, 1 point to a light degree, 2 points to a moderate degree of reaction and 3 points to a reaction of serious gravity.
For each volunteer scores were recorded for each parameter and the mean value was calculated. […]

[2] = system: skin of the face (periocular and zygomatic zone); experiment: Non occlusive application: cutaneous tolerability test on the face
Experimental: For the second series of tests cutaneous irritation was determined following non-occlusive applications.
Non occlusive application
as §1
Eight healthy volumary women were chosen, aged between 30 and 50 (average age 37,5).
The samples were applied on one half of the face (periocular and zygomatic zone) using a badger brush. The duration of the application was decided according to the type of skin and to the cutaneous reaction of the individual volunteer. 5 applications were carried out, one every three or more days according to the subjects.
The irritating effect was assessed before the application and one hour after the application.
The parameters considered to clinically evaluate the irritating degree of the substance under examination were the following:
irritative symptoms: erythema, pruritus, burning, desquamation, blistering, eczematous reaction.
The irritating effect was assessed on the basis of an arbitrary scale, based on clinical experience, recorded as follows:
1=Modest reaction (slight reddening, pruritus)
2=Irritative reaction (erythema, pruritus, desquamation)
3=Strong irritative reaction (erythema, burning, strong pruritus, desquamation, and more)
After every application the cutaneous reactions of each volunteer were evaluated and a relative score was given.

[3] = application time 3 min, 50% concentration, pH 2,5, right side of face, one value per subject

Structure (SMILES): O=C(O)CO [AG, glycolic acid]
- average index of cutaneous irritation of AG compared to that of CCAG ([1]; 10% concentration): significantly and appreciably higher
- average index of cutaneous irritation of free glycolic acid compared to that of glycolic acid complexed with cyclodextrins ([1]; at comparable concentrations (5%)): slightly higher
- case of average to serious irritation after the second application, requiring suspension of the treatment ([2]; 8 subjects, right side periocular and zygomatic area): one
- irritation score (arbitrary scale 0-3), 1st application ([2]; application time 1 min, 50% concentration, pH 2,5, AG right side, CCAG left side of face, one value per subject): 0
- irritation score (arbitrary scale 0-3), 2nd application ([2]; application time 2 min, 50% concentration, pH 2,5, AG right side, CCAG left side of face, one value per subject): 2/3 and 0
- irritation score (arbitrary scale 0-3), 3rd application ([2]; application time 3 min, 50% concentration, pH 2,5, AG right side, CCAG left side of face, one value per subject): 2 and 0
- irritation score (arbitrary scale 0-3), 4th application, AG [2, 3]: 0
- irritation score (arbitrary scale 0-3), 5th application, AG [2, 3]: 0
- cases of irritation of average gravity after the third application ([2]; in vivo): 2 cases
- cases of irritation of grade 2 and 2/3 ([2]; in vivo): 3 cases
- irritation because of which subject 1 had to suspend treatment ([2]; subject 1, second application): average to serious irritation
